Measured values taken from ChEMBL document CHEMBL5058646 (2022).

Tests used:
[1] = target: Dual specificity protein kinase TTK (Homo sapiens) (UniProt P33981); assay: TTK SGC Tm panel (DSF); conditions: Compound concentration 20.0 uM
[2] = target: T1, Zinc finger and BTB domain-containing protein 1 (Homo sapiens) (UniProt Q9Y2K1); conditions: SUD4, Compound concentration 1.0 uM
T1 sequence (whole entry): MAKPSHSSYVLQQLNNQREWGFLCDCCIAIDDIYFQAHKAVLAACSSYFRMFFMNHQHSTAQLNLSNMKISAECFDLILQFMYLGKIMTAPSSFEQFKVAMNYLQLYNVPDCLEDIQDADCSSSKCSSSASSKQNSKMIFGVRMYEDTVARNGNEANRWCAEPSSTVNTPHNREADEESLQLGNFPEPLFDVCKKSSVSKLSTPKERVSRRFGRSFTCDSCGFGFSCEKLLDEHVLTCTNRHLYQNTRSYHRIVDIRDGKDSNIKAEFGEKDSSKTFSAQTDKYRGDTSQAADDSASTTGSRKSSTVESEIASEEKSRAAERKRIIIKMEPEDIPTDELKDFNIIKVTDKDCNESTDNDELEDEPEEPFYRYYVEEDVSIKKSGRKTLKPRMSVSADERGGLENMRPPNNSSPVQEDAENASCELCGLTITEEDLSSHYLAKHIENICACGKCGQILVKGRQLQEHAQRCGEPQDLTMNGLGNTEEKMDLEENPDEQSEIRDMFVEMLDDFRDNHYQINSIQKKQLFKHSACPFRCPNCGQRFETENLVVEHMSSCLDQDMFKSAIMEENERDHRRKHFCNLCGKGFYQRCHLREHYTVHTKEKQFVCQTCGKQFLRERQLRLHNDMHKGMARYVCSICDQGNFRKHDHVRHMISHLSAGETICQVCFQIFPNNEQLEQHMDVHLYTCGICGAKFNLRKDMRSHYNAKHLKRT

[3] = target: MAP/microtubule affinity-regulating kinase 4 (Homo sapiens) (UniProt Q96L34); assay: MARK4 SGC Tm panel (DSF); conditions: Compound concentration 20.0 uM
[4] = target: Serine/threonine-protein kinase WNK1 (Homo sapiens) (UniProt Q9H4A3); assay: WNK1 SGC Tm panel (DSF); conditions: Compound concentration 20.0 uM
Sequence of Serine/threonine-protein kinase WNK1 (Homo sapiens) (Q9H4A3 whole entry, looked up): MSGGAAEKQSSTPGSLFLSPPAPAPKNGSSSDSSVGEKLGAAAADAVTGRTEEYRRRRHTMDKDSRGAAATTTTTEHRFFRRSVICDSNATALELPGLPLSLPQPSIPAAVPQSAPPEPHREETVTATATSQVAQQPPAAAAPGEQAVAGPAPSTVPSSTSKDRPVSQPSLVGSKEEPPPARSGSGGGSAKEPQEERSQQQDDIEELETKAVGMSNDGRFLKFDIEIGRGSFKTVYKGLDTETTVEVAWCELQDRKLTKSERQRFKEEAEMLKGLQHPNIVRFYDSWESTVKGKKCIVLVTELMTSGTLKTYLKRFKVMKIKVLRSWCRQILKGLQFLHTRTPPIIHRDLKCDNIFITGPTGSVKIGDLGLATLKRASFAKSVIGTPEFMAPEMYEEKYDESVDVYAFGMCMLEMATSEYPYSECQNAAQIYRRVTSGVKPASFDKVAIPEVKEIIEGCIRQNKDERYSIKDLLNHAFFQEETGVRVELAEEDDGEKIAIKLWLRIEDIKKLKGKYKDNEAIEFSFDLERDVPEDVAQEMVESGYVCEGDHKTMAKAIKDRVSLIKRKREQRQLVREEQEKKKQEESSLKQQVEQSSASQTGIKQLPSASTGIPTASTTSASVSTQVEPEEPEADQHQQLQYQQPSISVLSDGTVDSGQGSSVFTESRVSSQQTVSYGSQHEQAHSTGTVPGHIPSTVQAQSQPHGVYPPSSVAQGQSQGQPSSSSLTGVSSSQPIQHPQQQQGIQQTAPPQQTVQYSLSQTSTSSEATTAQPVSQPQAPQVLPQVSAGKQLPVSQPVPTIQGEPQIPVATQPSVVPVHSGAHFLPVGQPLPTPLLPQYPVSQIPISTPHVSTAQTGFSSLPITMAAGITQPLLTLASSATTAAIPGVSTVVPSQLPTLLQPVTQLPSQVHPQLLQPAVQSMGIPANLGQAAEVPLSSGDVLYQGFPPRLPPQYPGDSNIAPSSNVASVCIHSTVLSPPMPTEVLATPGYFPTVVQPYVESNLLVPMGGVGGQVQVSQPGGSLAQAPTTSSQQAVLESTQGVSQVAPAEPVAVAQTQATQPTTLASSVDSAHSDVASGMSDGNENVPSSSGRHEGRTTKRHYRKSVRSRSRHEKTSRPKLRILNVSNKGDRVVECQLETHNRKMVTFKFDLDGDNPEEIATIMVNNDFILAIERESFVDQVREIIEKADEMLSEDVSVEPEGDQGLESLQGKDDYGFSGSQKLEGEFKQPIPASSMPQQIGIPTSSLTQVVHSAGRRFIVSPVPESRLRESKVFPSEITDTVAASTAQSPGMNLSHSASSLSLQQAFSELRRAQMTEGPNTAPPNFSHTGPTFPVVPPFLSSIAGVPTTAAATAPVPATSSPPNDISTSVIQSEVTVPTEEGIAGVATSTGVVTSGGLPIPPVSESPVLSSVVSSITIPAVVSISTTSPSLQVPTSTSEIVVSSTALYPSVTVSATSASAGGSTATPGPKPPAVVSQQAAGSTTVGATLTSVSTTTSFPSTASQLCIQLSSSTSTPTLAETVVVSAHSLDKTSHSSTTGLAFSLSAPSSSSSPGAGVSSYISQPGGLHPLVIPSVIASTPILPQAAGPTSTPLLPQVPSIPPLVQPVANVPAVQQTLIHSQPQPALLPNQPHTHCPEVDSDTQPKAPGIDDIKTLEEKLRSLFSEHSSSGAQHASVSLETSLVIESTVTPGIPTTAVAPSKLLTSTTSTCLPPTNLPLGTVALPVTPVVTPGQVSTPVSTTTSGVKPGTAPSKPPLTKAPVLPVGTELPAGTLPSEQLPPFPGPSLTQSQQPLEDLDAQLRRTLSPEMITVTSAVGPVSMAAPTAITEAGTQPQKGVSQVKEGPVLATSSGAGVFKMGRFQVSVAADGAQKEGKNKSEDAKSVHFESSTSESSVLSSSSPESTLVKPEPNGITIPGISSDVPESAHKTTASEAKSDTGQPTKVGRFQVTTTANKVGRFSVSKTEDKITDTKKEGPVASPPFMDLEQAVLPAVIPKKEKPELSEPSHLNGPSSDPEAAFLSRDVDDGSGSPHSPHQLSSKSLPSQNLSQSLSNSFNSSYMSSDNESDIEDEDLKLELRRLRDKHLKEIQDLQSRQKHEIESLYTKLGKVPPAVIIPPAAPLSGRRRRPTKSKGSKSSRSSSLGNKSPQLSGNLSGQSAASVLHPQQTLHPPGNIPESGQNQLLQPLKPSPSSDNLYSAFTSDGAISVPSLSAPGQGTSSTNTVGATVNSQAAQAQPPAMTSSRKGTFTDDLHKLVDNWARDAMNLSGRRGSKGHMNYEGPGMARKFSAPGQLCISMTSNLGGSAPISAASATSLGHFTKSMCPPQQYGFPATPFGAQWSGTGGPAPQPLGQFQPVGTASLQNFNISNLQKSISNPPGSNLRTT

[5] = target: Mitogen-activated protein kinase 14 (Homo sapiens) (UniProt Q16539); assay: MAPK14 SGC Tm panel (DSF); conditions: Compound concentration 20.0 uM
Sequence of Mitogen-activated protein kinase 14 (Homo sapiens) (Q16539 whole entry): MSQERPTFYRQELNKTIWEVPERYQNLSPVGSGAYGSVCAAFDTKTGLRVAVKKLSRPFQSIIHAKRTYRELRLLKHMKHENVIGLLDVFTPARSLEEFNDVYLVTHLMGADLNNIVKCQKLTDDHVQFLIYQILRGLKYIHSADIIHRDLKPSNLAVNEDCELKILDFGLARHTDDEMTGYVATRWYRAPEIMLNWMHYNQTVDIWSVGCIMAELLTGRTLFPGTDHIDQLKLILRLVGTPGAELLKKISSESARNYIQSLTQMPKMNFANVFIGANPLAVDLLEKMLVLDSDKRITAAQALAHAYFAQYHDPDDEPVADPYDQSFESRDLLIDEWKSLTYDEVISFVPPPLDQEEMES

[6] = target: GABA-A receptor; anion channel (Rattus norvegicus) (UniProt O09028+P15431+P18506+P18508+P19969+P20236+P23574+P23576+P28471+P28473+P30191+P62813+P63079+P63138+Q91ZM7+Q9ES14); conditions: Compound concentration 10.0 uM
[7] = target: Homeodomain-interacting protein kinase 2 (Homo sapiens) (UniProt Q9H2X6); assay: HIPK2 SGC Tm panel (DSF); conditions: Compound concentration 20.0 uM
Sequence of Homeodomain-interacting protein kinase 2 (Homo sapiens) (Q9H2X6 whole entry, looked up): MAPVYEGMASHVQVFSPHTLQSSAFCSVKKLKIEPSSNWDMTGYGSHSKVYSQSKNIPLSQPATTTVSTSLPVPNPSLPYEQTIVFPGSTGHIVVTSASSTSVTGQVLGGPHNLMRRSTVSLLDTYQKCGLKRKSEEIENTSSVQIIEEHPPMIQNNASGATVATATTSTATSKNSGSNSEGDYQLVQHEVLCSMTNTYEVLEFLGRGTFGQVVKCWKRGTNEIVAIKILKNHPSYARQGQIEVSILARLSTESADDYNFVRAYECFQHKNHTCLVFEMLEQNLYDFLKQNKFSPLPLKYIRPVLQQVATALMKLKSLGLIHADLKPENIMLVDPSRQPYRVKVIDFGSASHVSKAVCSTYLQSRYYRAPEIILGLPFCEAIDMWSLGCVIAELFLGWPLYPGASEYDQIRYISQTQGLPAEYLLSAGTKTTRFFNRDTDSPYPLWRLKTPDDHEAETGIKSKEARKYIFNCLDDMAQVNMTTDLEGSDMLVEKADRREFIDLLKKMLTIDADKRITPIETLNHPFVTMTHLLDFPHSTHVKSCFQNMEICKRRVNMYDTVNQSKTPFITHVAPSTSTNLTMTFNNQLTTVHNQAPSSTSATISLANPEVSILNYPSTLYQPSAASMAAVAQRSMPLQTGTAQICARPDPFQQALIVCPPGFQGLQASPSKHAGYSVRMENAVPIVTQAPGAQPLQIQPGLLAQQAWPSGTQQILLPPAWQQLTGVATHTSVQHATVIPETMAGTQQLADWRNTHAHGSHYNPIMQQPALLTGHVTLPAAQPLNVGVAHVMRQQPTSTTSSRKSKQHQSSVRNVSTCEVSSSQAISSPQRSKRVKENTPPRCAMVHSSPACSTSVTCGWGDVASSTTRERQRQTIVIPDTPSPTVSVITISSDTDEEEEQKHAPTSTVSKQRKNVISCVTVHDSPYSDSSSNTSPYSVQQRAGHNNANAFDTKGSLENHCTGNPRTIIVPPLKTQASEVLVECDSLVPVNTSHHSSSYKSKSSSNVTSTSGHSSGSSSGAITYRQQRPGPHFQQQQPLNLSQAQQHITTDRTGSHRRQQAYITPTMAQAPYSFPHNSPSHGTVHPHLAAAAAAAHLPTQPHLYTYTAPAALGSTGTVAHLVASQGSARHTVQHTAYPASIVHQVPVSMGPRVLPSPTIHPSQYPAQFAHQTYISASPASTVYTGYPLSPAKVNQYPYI

[8] = target: Ephrin type-A receptor 2 (Homo sapiens) (UniProt P29317); assay: EPHA2 SGC Tm panel (DSF); conditions: Compound concentration 20.0 uM
[9] = target: T2, Telomere zinc finger-associated protein (Homo sapiens) (UniProt P10074); conditions: OCI-Ly1, Compound concentration 1.0 uM
T2 sequence (whole entry): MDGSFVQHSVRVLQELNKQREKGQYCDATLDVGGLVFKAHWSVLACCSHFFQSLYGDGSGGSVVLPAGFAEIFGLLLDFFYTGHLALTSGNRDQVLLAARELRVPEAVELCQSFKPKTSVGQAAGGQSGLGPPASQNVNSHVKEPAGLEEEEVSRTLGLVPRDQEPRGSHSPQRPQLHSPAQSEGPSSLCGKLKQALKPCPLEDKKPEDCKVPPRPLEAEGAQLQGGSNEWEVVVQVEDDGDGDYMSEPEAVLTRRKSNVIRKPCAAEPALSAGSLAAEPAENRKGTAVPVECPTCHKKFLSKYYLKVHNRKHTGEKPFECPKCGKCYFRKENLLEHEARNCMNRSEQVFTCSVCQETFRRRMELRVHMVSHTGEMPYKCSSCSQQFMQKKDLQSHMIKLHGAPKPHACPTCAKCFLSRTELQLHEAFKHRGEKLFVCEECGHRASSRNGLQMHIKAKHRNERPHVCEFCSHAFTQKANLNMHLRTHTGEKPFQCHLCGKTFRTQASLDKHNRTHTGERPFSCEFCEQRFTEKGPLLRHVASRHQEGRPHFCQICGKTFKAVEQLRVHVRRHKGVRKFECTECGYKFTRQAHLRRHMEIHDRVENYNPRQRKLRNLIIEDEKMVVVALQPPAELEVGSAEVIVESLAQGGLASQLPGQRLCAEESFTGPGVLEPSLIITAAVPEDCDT

[10] = target: T3, Zinc finger protein 131 (Homo sapiens) (UniProt P52739); conditions: OCI-Ly1, Compound concentration 1.0 uM
T3 sequence (whole entry): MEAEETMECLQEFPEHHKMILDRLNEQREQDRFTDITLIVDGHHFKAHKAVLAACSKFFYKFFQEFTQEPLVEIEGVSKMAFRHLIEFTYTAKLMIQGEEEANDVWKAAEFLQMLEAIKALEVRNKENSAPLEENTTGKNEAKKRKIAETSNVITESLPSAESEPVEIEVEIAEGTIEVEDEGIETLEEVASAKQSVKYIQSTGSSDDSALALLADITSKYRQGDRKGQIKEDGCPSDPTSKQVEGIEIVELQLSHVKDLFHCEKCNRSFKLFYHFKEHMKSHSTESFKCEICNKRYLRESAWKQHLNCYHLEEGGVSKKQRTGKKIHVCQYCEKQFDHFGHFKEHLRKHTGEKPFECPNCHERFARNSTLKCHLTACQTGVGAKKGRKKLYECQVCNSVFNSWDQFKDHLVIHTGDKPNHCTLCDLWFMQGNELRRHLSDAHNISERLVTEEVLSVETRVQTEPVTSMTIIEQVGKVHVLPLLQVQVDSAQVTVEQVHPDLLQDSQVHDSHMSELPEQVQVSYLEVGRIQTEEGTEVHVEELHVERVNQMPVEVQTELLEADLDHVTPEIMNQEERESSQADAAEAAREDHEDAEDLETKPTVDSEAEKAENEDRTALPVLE

Sequence of Dual specificity protein kinase TTK (Homo sapiens) (P33981 whole entry, the tested form may be a part): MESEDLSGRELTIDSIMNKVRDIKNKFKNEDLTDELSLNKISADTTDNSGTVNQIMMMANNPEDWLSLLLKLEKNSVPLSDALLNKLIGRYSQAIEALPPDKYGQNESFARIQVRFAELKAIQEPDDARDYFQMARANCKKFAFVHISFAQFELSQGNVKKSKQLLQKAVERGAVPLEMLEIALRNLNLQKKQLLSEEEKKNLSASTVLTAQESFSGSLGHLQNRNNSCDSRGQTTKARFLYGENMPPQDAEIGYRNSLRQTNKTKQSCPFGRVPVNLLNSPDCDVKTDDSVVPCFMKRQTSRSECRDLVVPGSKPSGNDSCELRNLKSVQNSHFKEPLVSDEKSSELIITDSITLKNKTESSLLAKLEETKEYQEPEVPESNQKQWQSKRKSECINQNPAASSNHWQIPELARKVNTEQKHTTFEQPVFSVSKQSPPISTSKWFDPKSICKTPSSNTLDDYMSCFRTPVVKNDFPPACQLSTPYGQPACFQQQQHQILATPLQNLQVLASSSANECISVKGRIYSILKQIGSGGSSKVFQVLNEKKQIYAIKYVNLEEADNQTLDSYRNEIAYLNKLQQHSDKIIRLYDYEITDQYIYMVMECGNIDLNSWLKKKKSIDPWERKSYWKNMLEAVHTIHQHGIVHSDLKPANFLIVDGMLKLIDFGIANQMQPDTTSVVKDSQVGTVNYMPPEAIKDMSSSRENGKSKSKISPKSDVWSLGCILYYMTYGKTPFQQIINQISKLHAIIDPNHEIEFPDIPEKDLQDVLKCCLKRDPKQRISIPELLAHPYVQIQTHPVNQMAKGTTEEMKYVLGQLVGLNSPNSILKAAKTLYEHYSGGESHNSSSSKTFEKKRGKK

C[C@@H]1CN(c2ncc(Cl)c(Nc3ccc4c(c3)n(CCC(C)(C)O)c(=O)n4C)n2)C[C@H](C)C1(F)F
inactive: Tm [1] 46 °C | LogFC [2] 0.0235 | Tm [3] 36 °C | Tm [4] 51 °C | Tm [5] 45 °C | inhibition [6] 7.06% | Tm [7] 43 °C | Tm [8] 46 °C | LogFC [9] 0.0229 | LogFC [10] -0.712
